# Source: article PMC2857669 (Biochemistry, 2009)
# Read-outs that look alike come from different tables or passages of the source.
# What was measured:
# HO [1] = settings: cited from earlier work
# ferrous heme-hHO-1 [2] = molecular target: T1, ferrous heme-hHO-1 (Homo sapiens, UniProt P09601); settings: cited from earlier work
# T1 sequence (P09601 1-265 limits assumed): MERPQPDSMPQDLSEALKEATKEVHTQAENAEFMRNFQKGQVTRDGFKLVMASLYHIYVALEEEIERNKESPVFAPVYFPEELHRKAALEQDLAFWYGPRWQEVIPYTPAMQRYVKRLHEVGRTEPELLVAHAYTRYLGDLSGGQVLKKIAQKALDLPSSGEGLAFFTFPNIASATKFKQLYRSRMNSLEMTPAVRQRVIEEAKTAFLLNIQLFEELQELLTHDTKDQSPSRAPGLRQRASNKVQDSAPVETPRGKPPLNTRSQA
# HO [3] = settings: cited from earlier work; remark: listed apart in the source
# hHO-1 = molecular target: T2, hHO-1 (Homo sapiens, UniProt P09601); test: biochemical
# T2 sequence (P09601 1-265 limits assumed): T1 sequence (P09601 1-265 limits assumed)
# CaHmx1 = CaHmx1 (Candida albicans, UniProt Q5AB97); assay type: binding; settings: read-out: estimate of the KD; ferric CaHmx1; no full saturation up to 7 mM
# ferric verdoheme-hHO-1 = molecular target: T3, ferric verdoheme-hHO-1 (Homo sapiens, UniProt P09601); test: biochemical; assay type: binding
# T3 sequence (P09601 1-265 limits assumed): T1 sequence (P09601 1-265 limits assumed)
# hHO-2 = molecular target: T4, hHO-2 (Homo sapiens, UniProt P30519); test: biochemical
# T4 sequence (P30519 2-295 limits assumed): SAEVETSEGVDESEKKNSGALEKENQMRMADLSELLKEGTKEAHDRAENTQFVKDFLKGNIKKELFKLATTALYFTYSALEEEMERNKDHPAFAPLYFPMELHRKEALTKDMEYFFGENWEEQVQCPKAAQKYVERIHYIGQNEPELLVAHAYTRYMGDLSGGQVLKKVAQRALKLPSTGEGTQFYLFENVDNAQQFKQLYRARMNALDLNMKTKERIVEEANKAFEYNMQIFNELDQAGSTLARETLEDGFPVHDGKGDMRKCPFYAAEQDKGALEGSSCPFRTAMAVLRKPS
# ferrous heme-hHO-1 [4] = molecular target: T1, ferrous heme-hHO-1; test: biochemical; assay type: binding
# verdoheme-HO-1 complex = settings: in the presence of reductant; cited from earlier work
# [5] = Solubility in aqueous solutions; assay type: physicochemical
# heme-hHO-1 [6] = molecular target: T5, heme-hHO-1 (Homo sapiens, UniProt P09601); assay type: binding; settings: ferric heme-hHO-1
# T5 sequence (P09601 1-265 limits assumed): T1 sequence (P09601 1-265 limits assumed)
# heme-hHO-1 [7] = molecular target: T5, heme-hHO-1; test: biochemical
molecule,measurement,setting,value
C=Cc1c2[n-]c(c1C)/C=c1\[n-]/c(c(C)c1C=C)=C\c1[n-]c(c(CCC(=O)O)c1C)C=c1[n-]/c(c(C)c1CCC(=O)O)=C\2.[Sn+4] [Sn-heme],Ki,HO [1],0.011 µM
"[C-]#[O+] [CO, carbon monoxide]",Kd,ferrous heme-hHO-1 [2],0.01 µM
same,association rate constant,ferrous heme-hHO-1 [2],900000 M⁻¹ s⁻¹
same,dissociation rate,ferrous heme-hHO-1 [2],0.009 s⁻¹
iron protoporphyrin IX [heme],Kd,HO [3],0.8 ± 0.2 µM
same,Km,"hHO-1; read-out: Km for heme, global fit to uncompetitive inhibition",0.005 ± 0.001 mM
[C-]#[N+]C(C)C [isopropyl isocyanide],Kd,CaHmx1,3800 µM
same,Kd,ferric verdoheme-hHO-1; ferric verdoheme-hHO-1 generated with one equivalent H2O2,440 ± 75 µM
same,IC50,hHO-2,1.17 ± 0.06 µM
same,IC50,hHO-1,0.72 ± 0.08 µM
same,association rate constant (kon),"ferrous heme-hHO-1 [4]; ferrous heme-hHO-1, 20 °C, anaerobic",1.3e+06 M⁻¹ s⁻¹
O=O [O2],estimated rate constant of reaction with O2,verdoheme-HO-1 complex,250 M⁻¹ s⁻¹
same,Kd,ferrous heme-hHO-1 [2],0.04 µM
same,association rate constant,ferrous heme-hHO-1 [2],6.9e+06 M⁻¹ s⁻¹
same,dissociation rate,ferrous heme-hHO-1 [2],0.25 s⁻¹
[C-]#[N+]CCCC [n-butyl isocyanide],solubility,[5],6 mM
same,Kd,ferric verdoheme-hHO-1,17 ± 3 µM
same,fold higher affinity than ferric heme-hHO-1,ferric verdoheme-hHO-1; ferric verdoheme-hHO-1 versus ferric heme-hHO-1,2 fold
same,fold higher affinity than isopropyl isocyanide,heme-hHO-1 [6],9 fold
same,IC50,heme-hHO-1 [7],~45 µM
same,IC50,hHO-2,0.34 ± 0.02 µM
same,IC50,hHO-1,0.25 ± 0.01 µM
same,Kd,ferrous heme-hHO-1 [4],0.12 µM
same,koff,ferrous heme-hHO-1 [4]; read-out: dissociation rate (koff),0.52 s⁻¹
